Tests used:
[1] = t1/2 after incubation with human hepatocytes (metabolic stability); format: in vitro ADME; details: male, cryopreserved human hepatocytes in suspension; 10 nM compound; cryopreserved human hepatocyte suspension, 37° C.; incubations stopped after 0.5, 1 and 3 h; LC-MS/MS
Experimental: Determination of t1′2 of Androgens of the Invention after Incubation with Human Hepatocytes
The half-life of a compound as a result of contact with human hepatocytes holds as a reliable indication of metabolic stability. As it is well known that the absorption of this class of steroids is high, this assay provides an in vitro model for oral activity in humans.
Hepatocytes collected from healthy young (25-45 year) male organ donors were cryo preserved in liquid nitrogen and kept there until use. They were thawed at 37° C. in a waterbath, placed immediately on ice, washed twice in one volume of cold (4° C.) incubation medium [William's medium E (without phenol red) with Glutamax I®, gentamicin 50 μg/ml, insulin 1 μM, hydrocortisone hemisuccinate 10 μM, fetal calf serum 0% (v/v)], counted and the viability checked by Trypan blue exclusion. Cells were incubated as suspensions in 12-wells (non-coated) plates at a nominal density of 0.5×10^6 cells/well in 1.5 ml medium at 37° C. with an air/O2/CO2 mixture (55/40/5). The plates were set on an orbital shaker at approximately 10 rpm.
The hepatocytes were incubated with 10 nM final concentration of the compound to be tested. The incubations were stopped after 0.5, 1 and 3 h by pipetting the whole incubation mixture into a glass tube and adding one volume of acetone on ice. The acetone was dried under a nitrogen flow at room temperature, the volume adjusted to 1.5 ml and the tubes were centrifuged at 4° C. at 10.000×g for 30 min. The de-proteinized supernatants were collected for LC-MS/MS analysis.

serum LH = assay: LH suppression assay: determination of oral activity; format: in vivo; details: Rattus norvegicus; mature male castrated rats; po daily for 4 days in arachis oil; serum LH 3 hours after last oral dose; read-out: ED50 (po) required to suppress serum LH for 50% (±10%)
Experimental: The LH Suppression Assay: Determination of Oral Activity
The in vivo potency (po) of several androgens of the invention was determined in a mature male castrated rat model, in comparison wih Segaloff compound. In this model serum LH is high (50× fold higher than with intact rats, due to the absence of the negative feedback of testicular testosterone). These rats are po treated for 4 days daily with a given compound of the invention in a suspension fluid of arachis oil. Before dosing and 3 hours after the last oral dose blood is collected via tail vene and in the serum LH is determined. Potency (po) of the androgens (ED50) are expressed as the amount (mg/kg) of androgen which suppresses serum LH for 50% (±10%).
The rat LH Time-Resolved Immuno Fluorometric Assay (TR-IFMA) has been developed in house using home made reagents, a monoclonal catching antibody directed against the β-subunit of human chorion gonadotrophin (hCG, which cross react with rat β-subunit) and a biotin labelled detecting antibody (rabbit polyclonal antibody directed against the alfa-subunit of recombinant rat LH). Recombinant rat LH was prepared according to the methods described by Hakola et al (1997). In this two-site-IFMA, only intact rat LH is determined by a final incubation with streptavidin-europium. The detection in the IFMA is based on fluorescence of the lanthanide europium during a relative long exitation period. The concentration range of rat LH standard is 0.001-10 ng/ml, for optimal accuracy measurements of serum LH serum samples were diluted 8-times with assay buffer [Hakola, K., Boogaart, P. V., Mulders, J., de Leeuw, R., Schoonen, W., Heyst, J. V., Swolfs, A., Casteren, J. V., Huhtaniemi, I., and Kloosterboer, H. J., Recombinant rat luteinizing hormone; production by Chinese hamster ovary cells, purification and functional characterization, Molecular & Cellular Endocrinology 128, 47 (1997)].

Structure (SMILES): C=C[C@@H]1CC2=CC(=O)CC[C@@H]2[C@H]2CC[C@@]3(C)C(=CC[C@@H]3O)[C@@H]21 [Example 2, (7α,17β)-7-Ethenyl-17-hydroxyestra-4,14-dien-3-one]
- half-life at 10 nM [1]: 0.667 h
- ED50 (serum LH): 0.5 mg/kg

Structure (SMILES): CC[C@@H]1CC2=CC(=O)CC[C@@H]2[C@H]2CC[C@@]3(C)C(=CC[C@@H]3O)[C@H]12 [Example 1a, (7α,17β)-7-Ethyl-17-hydroxyestra-4,14-dien-3-one]
- half-life at 10 nM [1]: 2.62 h
- ED50 (serum LH): 0.2 mg/kg

Structure (SMILES): C[C@@H]1CC2=CC(=O)CC[C@@H]2[C@H]2CC[C@@]3(C)C(=CC[C@@H]3O)[C@@H]21 [Segaloff compound, (7α,17β)-7-Methyl-17-hydroxyestra-4,14-dien-3-one, reference compound]
- half-life at 10 nM [1]: 1 h
- ED50 (serum LH): 5 mg/kg

Source: US6780854B2, “Orally active androgens” (Akzo Nobel NV, priority 1999, dated 2004)
